Data reported in patent EP0560267B1, “Isosteric antiherpes peptide derivatives” (BOEHRINGER INGELHEIM (CANADA) LTD., priority 1992, dated 1993).
Read-outs that look alike come from different tables or passages of the source.

Experiments:
[1] = biological target: T1, HSV-1 ribonucleotide reductase (Human herpesvirus 1, UniProt P08543); test: Inhibition of Herpes Simplex Virus (HSV-1) ribonucleotide reductase; format: biochemical
T1 construct: HSV-1 ribonucleotide reductase (partially purified) was obtained from quiescent BHK-21/C13 cells infected with strain F HSV-1 virus; made in house; host or cells: quiescent BHK-21/C13 cells infected with HSV-1 strain F (virus-encoded enzyme, partially purified)
T1 sequence (P08543 whole entry): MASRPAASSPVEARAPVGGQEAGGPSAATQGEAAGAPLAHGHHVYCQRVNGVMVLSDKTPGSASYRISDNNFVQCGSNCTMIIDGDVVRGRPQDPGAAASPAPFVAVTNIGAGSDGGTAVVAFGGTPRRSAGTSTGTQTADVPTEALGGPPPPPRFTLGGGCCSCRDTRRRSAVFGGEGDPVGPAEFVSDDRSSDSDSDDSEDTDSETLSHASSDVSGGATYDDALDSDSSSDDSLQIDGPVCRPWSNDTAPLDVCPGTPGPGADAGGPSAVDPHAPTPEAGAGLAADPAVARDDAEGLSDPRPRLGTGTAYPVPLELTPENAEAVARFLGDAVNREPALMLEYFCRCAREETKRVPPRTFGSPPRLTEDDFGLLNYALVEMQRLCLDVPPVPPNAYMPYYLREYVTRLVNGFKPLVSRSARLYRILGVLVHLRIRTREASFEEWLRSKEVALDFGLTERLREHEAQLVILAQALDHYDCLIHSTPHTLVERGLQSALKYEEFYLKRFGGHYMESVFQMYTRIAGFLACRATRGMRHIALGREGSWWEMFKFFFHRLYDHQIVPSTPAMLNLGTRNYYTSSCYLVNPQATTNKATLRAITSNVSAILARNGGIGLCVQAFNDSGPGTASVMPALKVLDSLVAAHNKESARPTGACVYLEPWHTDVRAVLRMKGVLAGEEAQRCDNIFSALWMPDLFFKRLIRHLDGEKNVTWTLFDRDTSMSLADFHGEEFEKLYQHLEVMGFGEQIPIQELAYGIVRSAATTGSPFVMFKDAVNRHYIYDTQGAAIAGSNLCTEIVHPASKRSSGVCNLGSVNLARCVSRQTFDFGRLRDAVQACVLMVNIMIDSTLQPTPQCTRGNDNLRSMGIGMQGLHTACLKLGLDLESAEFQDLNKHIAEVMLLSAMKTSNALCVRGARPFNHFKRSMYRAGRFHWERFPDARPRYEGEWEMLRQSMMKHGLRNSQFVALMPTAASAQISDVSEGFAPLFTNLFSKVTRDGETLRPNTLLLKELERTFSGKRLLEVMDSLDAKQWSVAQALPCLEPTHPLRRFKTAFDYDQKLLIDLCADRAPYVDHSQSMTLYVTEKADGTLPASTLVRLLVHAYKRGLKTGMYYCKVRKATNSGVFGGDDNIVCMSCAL
Source text: Inhibition of Herpes Simplex Virus (HSV-1) Ribonucleotide Reductase
• a) Preparation of Enzyme HSV-1 ribonucleotide reductase (partially purified) was obtained from quiescent BHK-21/C13 cells infected with strain F HSV-1 virus at 10 plaque forming units/cell as described by E.A. Cohen et al., J. Gen. Virol., 66, 733 (1985). • b) Assay and Results for Exemplified Peptides By following the procedure described by P. Gaudreau et al., J. Biol, Chem., 262, 12413 (1987), the assay results listed in the following Table I were obtained. The assay result for each exemplified compound of formula 1 is expressed as the concentration of the compound producing 50% of the maximal inhibition (IC50) of enzyme activity. The number of units of the enzyme preparation used in each assay was constant, based on the specific activity of the enzyme preparation. The results are relative to the activity obtained in control experiments without the test compound and represent the mean of four assays that varied less than 10% with each other.

HSV-2 = test: Inhibition of Herpes Simplex Virus (HSV-2) replication in cell culture; format: cell-based
Experimental: Inhibition of Herpes Simplex Virus (HSV-2) Replication in Cell Culture
BHK-21/C13 cells (ATCC CCL 10) are incubated for two days in 150 cm^2 T-flasks (1.5 x 10^6 cells/flask) with alpha-MEM medium (Gibco Canada Inc., Burlington, Ontario, Canada) supplemented with 8% (v/v) fetal bovine serum (FBS, Gibco Canada Inc.). The cells are trypsinized and then transferred to fresh media in a 24 well plate to give 2.5 x 10^5 cells in 750 µL of media per well. The cells are incubated at 37° for a period of 6 h to allow them to adhere to the plate. Thereafter, the cells are washed once with 500 µL of alpha-MEM supplemented with 0.5% (v/v) FBS and then incubated with 750 µL of the same media (low serum) for 3 days. After this period of serum starvation, the low serum medium is removed and the cells are incubated in 500 µL of BBMT for 2 to 3 hours. {BBMT medium is described by P. Brazeau et al., Proc. Natl. Acad. Sci. USA, 79, 7909 (1982).} Thereafter, the cells are infected with HSV-2 (multiplicity of infection = 0.02 PFU/cell) in 100 µL of BBMT medium. (Note: The HSV-2 used was strain HG-52, see Y. Langelier and G. Buttin, J. Gen. Virol., 57, 21 (1981); the virus was stored at -80°.) Following 1 h of virus adsorption at 37°, the media is removed and the cells are washed with BBMT (3 X 250 µL). The cells in each well are incubated with or without (control) appropriate concentrations of the test agent dissolved in 200 µL of BBMT medium. After 29 h of incubation at 37°, the infected cells are harvested by first freezing the plate at -80°, followed by thawing. The cells in each well are scraped off the surface of the well with the help of the melting ice fragments. After complete thawing, the cell suspensions are collected and each well is rinsed with 150 µL of BBMT medium. The viral sample (suspension plus washing) is sonicated gently for 4 min at 4°. Cell debris are removed by centrifugation (1000 times gravity for 10 minutes at 4°). The supernatant is collected and stored at -80° until determination of viral titer.
Viral titration was performed by a modification of the colorimetric assay method of M. Langlois et al., Journal of Biological Standardization, 14, 201 (1986).
More specifically, in a similar manner as described above, BHK-21/C13 cells are trypsinized and transferred to fresh media in a 96 well microtiter plate to give 20,000 cells in 100 µL of media per well. The cells in the prepared plate are incubated at 37° for 2 h. During that time, the viral sample is thawed and sonicated gently for 15 seconds, and log dilutions of the sample are prepared (1/5 sequential: 50 µL of the sample plus 200 µL of BBMT medium, sequential dilutions being done with a multichannel pipette.
On completion of the above 2 hour incubation of the BHK-21/C13 cells, the media is replaced with alpha-MEM medium supplemented with 3% (v/v) FBS. The cells are now ready to be infected with the various sample dilutions of virus. Aliquots (50 µL) of the various dilutions are transferred into the appropriate wells of the plate. The resulting infected cells are incubated for 2 days at 37°. Then 50 µL of a 0.15% (v/v) solution of neutral red dye in Hank's Balanced Salt Solution (pH 7.3, Gibco Canada Inc.) is added to each well. The prepared plate is incubated for 45 min at 37°. Medium from each well is then aspirated and the cells are washed once with 200 µL of Hank's Balanced Salt Solution. […]

[2] = Human alphaherpesvirus 2, Table IV, cell culture assay of example 11, read-out: EC50
[3] = Table I, partially purified enzyme from BHK-21/C13 cells infected with strain F HSV-1, mean of four assays
[4] = Human alphaherpesvirus 2, BHK21 (C13), 29 h, Table II, BHK-21/C13 cells, HSV-2 strain HG-52, 0.02 PFU/cell, 29 h incubation, read-out: EC50

Row | SMILES | IC50 ([1]; Table IV, assay of example 10) [µM] | EC50 (HSV-2; [2]) [µM] | IC50 [1, 3] [µM] | also measured
1 | CCCC(CC)NC(=O)NC(C(=O)CC(CC(=O)C(C)(C)C)C(=O)NC(C(=O)NCC(C)(C)C)C1(C(=O)O)CCCC1)C(C)(C)C [(R,S)-EtPrCH-NHC(O) / NHCH2CMe3, (R,S)-EtPrCH-NHC(O)-Tbg-CH2-(R)-CH(CH2C(O)CMe3)C(O)-Asp(cyPn)-NHCH2CMe3] | 0.23 | 35 |  | 
2 | CCCCC(CCCC)NC(=O)NC(C(=O)CC(CC(=O)C(C)(C)C)C(=O)NC(C(=O)NCC(C)(C)C)C1(C(=O)O)CCCC1)C(C)(C)C [Bu2CHNHC(O) / NHCH2CMe3, Bu2CHNHC(O)-Tbg-CH2-(R)-CH(CH2C(O)CMe3)C(O)-Asp(cyPn)-NHCH2CMe3] | 0.53 | 65 |  | 
3 | CCC(CC)NC(=O)NC(C(=O)CC(CC(=O)C(C)(C)C)C(=O)NC(C(=O)NCC(C)(C)C)C1(C(=O)O)CCCC1)C(C)(C)C [Et2CHNHC(O)-Tbg-CH2-(R)-CH(CH2C(O)-CMe3)C(O)-Asp(cyPn)-NHCH2CMe3] |  |  | 0.23 | EC50 (HSV-2; [4]): 56 µM
4 | CCC(CC)NC(=O)NC(C(=O)CC(CC(=O)C1CCCC1)C(=O)NC(C(=O)NCC(C)(C)C)C1(C(=O)O)CCCC1)C(C)(C)C [Et2CHNHC(O)-Tbg-CH2-(R)-CH{CH2C(O)-(cyclopentyl)}C(O)-Asp(cyPn)-NHCH2CMe3] |  |  | 0.22 | EC50 (HSV-2; Human alphaherpesvirus 2, BHK21 (C13), 29 h): 50 µM

Second part, led by results:

Row | IC50 ([1]; Table IV, assay of example 10) [µM] | EC50 (HSV-2; [2]) [µM] | IC50 [1, 3] [µM] | SMILES | also measured
5 |  |  | 0.17 | CCC(CC)NC(=O)NC(C(=O)CC(CC(=O)N1CCCC1)C(=O)NC(C(=O)NC(CO)CC(C)(C)C)C1(C(=O)O)CCCC1)C(C)(C)C [Et2CHNHC(O)-Tbg-CH2-(S)-CH{CH2C(O)-(pyrrolidino)}C(O)-Asp(cyPn)-γMeLeucinol] | EC50 (HSV-2; [4]): 200 µM
6 | 0.36 | 6 |  | CCCC(CC)(CCC)NC(=O)NC(C(=O)CC(CC(=O)C(C)(C)C)C(=O)NC(C(=O)NC(CC)C(C)(C)C)C1(C(=O)O)CCCC1)C(C)(C)C [EtPr2CNHC(O) / NH-(R)-CH(Et)CMe3, EtPr2CNHC(O)-Tbg-CH2-(R)-CH(CH2C(O)CMe3)C(O)-Asp(cyPn)-NH-(R)-CH(Et)CMe3] | 
7 | 0.41 | 10 |  | CCCC(CC)(CCC)NC(=O)NC(C(=O)CC(CC(=O)C(C)(C)C)C(=O)NC(C(=O)NC(C)C(C)(C)C)C1(C(=O)O)CCCC1)C(C)(C)C [EtPr2CNHC(O) / NH-(R)-CH(Me)CMe3, EtPr2CNHC(O)-Tbg-CH2-(R)-CH(CH2C(O)CMe3)C(O)-Asp(cyPn)-NH-(R)-CH(Me)CMe3] | 
8 | 0.39 | 58 |  | CCCC(C)(C)NC(=O)NC(C(=O)CC(CC(=O)C(C)(C)C)C(=O)NC(C(=O)NCC(C)(C)C)C1(C(=O)O)CCCC1)C(C)(C)C [Me2PrCNHC(O) / NHCH2CMe3, Me2PrCNHC(O)-Tbg-CH2-(R)-CH(CH2C(O)CMe3)C(O)-Asp(cyPn)-NHCH2CMe3] | 
9 | 0.36 |  |  | CCCC(C)(CCC)NC(=O)NC(C(=O)CC(CC(=O)C(C)(C)C)C(=O)NC(C(=O)NCC(C)(C)CC)C1(C(=O)O)CCCC1)C(C)(C)C [MePr2CHNHC(O) / NHCH2CMe2Et, MePr2CHNHC(O)-Tbg-CH2-(R)-CH(CH2C(O)CMe3)C(O)-Asp(cyPn)-NHCH2CMe2Et] | EC50 (HSV-2; Human alphaherpesvirus 2, Table IV, cell culture assay of example 11): 29 µM
